# Laboratory results: patent US20220079931A1, “ESTROGEN RECEPTOR PROTEIN DEGRADERS” (THE REGENTS OF THE UNIVERSITY OF MICHIGAN, priority 2019, published 2022)
# Biological target: T1, VHL-ElonginBC complex (Homo sapiens, UniProt P40337)
# T1 construct: His-TEV (His-tag with TEV protease site) (cleaved yes); made in house; host or cells: E. coli BL21(DE3)
# Assay: Fluorescence-polarization (FP) competitive binding assay for VHL
# Conditions: VHL ligands; VHL-ElonginBC complex and fluorescent probe both 5 nM; read-out: FP Binding affinity IC50
# Description: Cloning and Purification of VHL-ElonginBC complex. The DNA sequence of VHL (coding for residues 54-213) was constructed by PCR and inserted into a His-TEV expression vector^58 using ligation-independent cloning. The DNA sequences of Elongin B (encoding residues 1-118) and Elongin C (encoding residues 1-96) were constmcted by PCR and inserted into pCDFDuet 1 using Gibson assembly.^59 BL21(DE3) cells were transformed simultaneously with both plasmids and grown in Terrific Broth at 37° C. until an OD600 of 1.2. The cells were induced overnight with 0.4 mM IPTG at 24° C. Pelleted cells were freeze-thawed then resuspended in 20 mM Tris HCl pH7.0, 200 mM NaCl and 0.1% β-mercaptoethanol (bME) containing protease inhibitors. The cell suspension was lysed by sonication and debris removed via centrifugation. The supernatant was incubated at 4° C. for 1 hr with Ni-NTA (Qiagen) pre-washed in 20 mM Tris-HCl pH 7.0, 200 mM NaCl and 10 mM Imidazole. The protein complex was eluted in 20 mM Tris-HCl pH 7.0, 200 mM NaCl and 300 mM Imidazole, dialyzed into 20 mM Tris-HCl pH 7.0, 150 mM NaCl, and 0.01% bME and incubated with TEV protease overnight at 4° C. The protein sample was reapplied to the Ni-NTA column to remove the His-tag. The flow through containing the VHL complex was diluted to 75 mM NaCl and applied to a HiTrap Q column (GE Healthcare). The sample was eluted with a salt gradient (0.075-1 M NaCl), concentrated and further purified on a Superdex S75 column (GE Healthcare) pre-equilibrated with 20 mM Bis-Tris 7.0, 150 mM NaCl and 1 mM DTT. Samples were aliquoted and stored at −80° C.
# Binding Affinities of VHL ligands to VHL. A fluorescence-polarization (FP) competitive assay was established using VHL-ElonginBC complex and a fluorescently tagged probe (SI). The IC50 and Ki values of VHL ligands were determined in competitive binding experiments. Mixtures of 5 μL of compounds in DMSO and 95 μL of preincubated protein/tracer complex solution were added into assay plates which were incubated at rt for 60 min with gentle shaking. Final concentrations of VHL-ElonginBC complex and fluorescent probe were both 5 nM. Negative controls containing protein/probe complex only (equivalent to 0% inhibition) and positive controls containing only free probes (equivalent to 100% inhibition) were included in each assay plate. FP values in millipolarization units (mP) were measured using the Infinite M-1000 plate reader (Tecan U.S., Research Triangle Park, N.C.) in Microfluor 1 96-well, black, round-bottom plates (Thermo Scientific, Waltham, Mass.) at an excitation wavelength of 485 nm and an emission wavelength of 530 nm. IC50 values were determined by nonlinear regression fitting of the competition curves. Ki values of competitive inhibitors were obtained directly by nonlinear regression fitting, based upon the KD values of the probe and concentrations of the protein and probe in the competitive assays. All the FP competitive experiments were performed in duplicate in three independent experiments.
row,SMILES,IC50 [µM]
1,"CC(=O)N[C@H](C(=O)N1C[C@H](O)C[C@H]1C(=O)N[C@@H](C)c1ccc(C(C)C)cc1)C(C)(C)C [47a, (2S,4R)-1-((S)-2-acetamido-3,3-dimethylbutanoyl)-4-hydroxy-N—((S)-1-(4-isopropylphenyl)ethyl)pyrrolidine-2-carboxamide]",41 ± 6.67
2,"C#Cc1ccc([C@H](C)NC(=O)[C@@H]2C[C@@H](O)CN2C(=O)[C@@H](NC(C)=O)C(C)(C)C)cc1 [44a, (2S,4R)-1-((S)-2-acetamido-3,3-dimethylbutanoyl)-N—((S)-1-(4-ethynylphenyl)ethyl)-4-hydroxypyrrolidine-2-carboxamide]",0.879 ± 0.097
3,"CC(=O)N[C@H](C(=O)N1C[C@H](O)C[C@H]1C(=O)N[C@@H](C)c1ccc(C#N)cc1)C(C)(C)C [45a, (2S,4R)-1-((S)-2-acetamido-3,3-dimethylbutanoyl)-N—((S)-1-(4-cyanophenyl)ethyl)-4-hydroxypyrrolidine-2-carboxamide]",4.83 ± 0.418
4,"CC(=O)N[C@H](C(=O)N1C[C@H](O)C[C@H]1C(=O)N[C@@H](C)c1ccc(C(C)(C)C)cc1)C(C)(C)C [48a, (2S,4R)-1-((S)-2-acetamido-3,3-dimethylbutanoyl)-N—((S)-1-(4-(tert-butyl)phenyl)ethyl)-4-hydroxypyrrolidine-2-carboxamide]",58.9 ± 5.26
5,"CC(=O)N[C@H](C(=O)N1C[C@H](O)C[C@H]1C(=O)N[C@@H](C)c1ccc(Cl)cc1)C(C)(C)C [43a, (2S,4R)-1-((S)-2-acetamido-3,3-dimethylbutanoyl)-N—((S)-1-(4-chlorophenyl)ethyl)-4-hydroxypyrrolidine-2-carboxamide]",7.87 ± 0.642

# Biological target: T2, ERα (Homo sapiens, UniProt P03372)
# T2 sequence (P03372 1-595): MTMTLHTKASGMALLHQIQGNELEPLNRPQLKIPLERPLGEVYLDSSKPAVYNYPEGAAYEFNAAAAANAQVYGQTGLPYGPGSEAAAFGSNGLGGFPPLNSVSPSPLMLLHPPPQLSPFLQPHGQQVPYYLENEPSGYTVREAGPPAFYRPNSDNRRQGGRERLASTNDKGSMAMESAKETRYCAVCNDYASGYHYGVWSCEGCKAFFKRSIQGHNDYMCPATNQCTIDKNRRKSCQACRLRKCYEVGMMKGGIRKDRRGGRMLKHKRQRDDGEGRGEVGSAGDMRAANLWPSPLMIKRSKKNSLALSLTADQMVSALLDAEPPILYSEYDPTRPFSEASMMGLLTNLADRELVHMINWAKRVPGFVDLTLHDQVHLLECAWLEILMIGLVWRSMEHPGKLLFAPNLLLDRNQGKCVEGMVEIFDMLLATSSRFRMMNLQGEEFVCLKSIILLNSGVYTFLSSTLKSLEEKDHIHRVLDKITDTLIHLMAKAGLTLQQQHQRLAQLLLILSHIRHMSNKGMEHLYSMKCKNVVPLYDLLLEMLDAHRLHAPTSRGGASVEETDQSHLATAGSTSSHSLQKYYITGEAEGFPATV
# Assay: ER degradation by Western blotting in MCF-7 cells
# Type: cell-based
# Parameters: host or cells: MCF-7
# Conditions: 1 nM, 10 nM and 100 nM, 4 h, linkers containing 6-9 carbon atoms
# Description: FIG. 1 is an image showing the Western blotting analysis of ER protein in MCF-7 cells treated with Compounds of the Disclosure and control compounds. Cells were treated with different compounds for 4 h and whole cell lysates were then analyzed by Western blotting to examine the level of ER protein. GADPH protein was used for the loading control. The numbers below the panel represent the ERα/GADPH ratio normalized with the DMSO control at 100.
# FIG. 2 is an image showing the Western blotting analysis of ER protein in the MCF-7 cells treated with indicated compounds at 1 nM, 10 nM and 100 nM. MCF-7 cells were treated with different compounds for 4 h and whole cell lysates were analyzed by Western blotting to examine the level of ER protein. GADPH protein was used for the loading control. The numbers below the panel represent the ERα/GADPH ratio normalized with the DMSO control at 100.
# FIG. 7 is an image showing the ERα degradation dose-response Western blotting for compound 32 at 4 h in MCF-7 cells.
# FIG. 9 is an image showing the time course of ERα degradation by Western blotting by compound 32 (30 nM) and fulvestrant (30 nM) in the MCF-7 cells.
# Cell Culture. Human breast cancer cell lines MCF-7 (ATCC® HTB-22™) and T47D (ATCC® HTB-133™) were purchased from the American Type Culture Collection (ATCC), Manassas, Va., and maintained and cultured in Dulbecco's Modified Eagle's medium (DMEM) containing 10% fetal bovine serum, 1 unit/ml of penicillin and 1 μg/ml of streptomycin. Cells with 3-8 passages after purchase were used in experiments as indicated.
# Western Blot Analysis. Western blot analysis was performed essentially as described previously (Hu et al, 2015, PMID: 26358219). Cells treated with indicated compounds were lysed in Radioimmunoprecipitation Assay Protein Lysis and Extraction Buffer (25 mmol/L Tris.HCl, pH 7.6, 150 mmol/L NaCl, 1% Nonidet P-40, 1% sodium deoxycholate, and 0.1% sodium dodecyl sulfate) containing proteinase inhibitor cocktail (Roche Diagnostics, Mannheim, Germany). After determination of protein concentration by BCA assay (Fisher Scientific, Pittsburgh, Pa.), equal amounts of total protein were electrophoresed through 10% SDS-polyacrylamide gels. The separated protein bands were transferred onto PVDF membranes (GE Healthcare Life Sciences, Marlborough, Mass.) and blotted against different antibodies, as indicated. The human estrogen receptor a antibodies (AB16460) were purchased from Abeam, Inc., Cambridge, Mass. The membranes were reblotted with horseradish peroxidase-conjugated anti-glyceraldehyde-3-phosphate dehydrogenase antibody (G9295) from Sigma-Aldrich Corporation, St. Louis, Mo. The blots were scanned and the band intensities were quantified using GelQuant.NET software as described in biochemlabsolutions.com. The relative mean intensity of target proteins was expressed after normalization to the intensity of glyceraldehyde-3-phosphate dehydrogenase bands from individual repeats.
row,SMILES,ER degradation (Western blotting)
1,"CCN(CCCCCC(=O)N[C@H](C(=O)N1C[C@H](O)C[C@H]1C(=O)N[C@@H](C)c1ccc(-c2scnc2C)cc1)C(C)(C)C)CCOc1ccc(C(=O)c2c(-c3ccc(O)cc3)sc3cc(O)ccc23)cc1 [compound 18, (2S,4R)-1-((S)-2-(6-(Ethyl(2-(4-(6-hydroxy-2-(4-hydroxyphenyl)benzo[b]thiophene-3-carbonyl)phenoxy)ethyl)amino)hexanamido)-3,3-dimethylbutanoyl)-4-hydroxy-N—((S)-1-(4-(4-methylthiazol-5-yl)phenyl)ethyl)pyrrolidine-2-carboxamide]",surprisingly effective in inducing ER degradation at concentrations as low as 1 nM
2,"CCN(CCCCCCCCC(=O)N[C@H](C(=O)N1C[C@H](O)C[C@H]1C(=O)N[C@@H](C)c1ccc(-c2scnc2C)cc1)C(C)(C)C)CCOc1ccc(C(=O)c2c(-c3ccc(O)cc3)sc3cc(O)ccc23)cc1 [compound 20, (2S,4R)-1-((S)-2-(9-(Ethyl(2-(4-(6-hydroxy-2-(4-hydroxyphenyl)benzo[b]thiophene-3-carbonyl)phenoxy)ethyl)amino)nonanamido)-3,3-dimethylbutanoyl)-4-hydroxy-N—((S)-1-(4-(4-methylthiazol-5-yl)phenyl)ethyl)pyrrolidine-2-carboxamide]",surprisingly effective in inducing ER degradation at concentrations as low as 1 nM
3,"CCN(CCCCCCC(=O)N[C@H](C(=O)N1C[C@H](O)C[C@H]1C(=O)N[C@@H](C)c1ccc(-c2scnc2C)cc1)C(C)(C)C)CCOc1ccc(C(=O)c2c(-c3ccc(O)cc3)sc3cc(O)ccc23)cc1 [compound 19, (2S,4R)-1-((S)-2-(7-(Ethyl(2-(4-(6-hydroxy-2-(4-hydroxyphenyl)benzo[b]thiophene-3-carbonyl)phenoxy)ethyl)amino)heptanamido)-3,3-dimethylbutanoyl)-4-hydroxy-N—((S)-1-(4-(4-methylthiazol-5-yl)phenyl)ethyl)pyrrolidine-2-carboxamide]",surprisingly effective in inducing ER degradation at concentrations as low as 1 nM
4,"CCN(CCCCCCCCCC(=O)N[C@H](C(=O)N1C[C@H](O)C[C@H]1C(=O)N[C@@H](C)c1ccc(-c2scnc2C)cc1)C(C)(C)C)CCOc1ccc(C(=O)c2c(-c3ccc(O)cc3)sc3cc(O)ccc23)cc1 [compound 21, (2S,4R)-1-((S)-2-(10-(Ethyl(2-(4-(6-hydroxy-2-(4-hydroxyphenyl)benzo[b]thiophene-3-carbonyl)phenoxy)ethyl)amino)decanamido)-3,3-dimethylbutanoyl)-4-hydroxy-N—((S)-1-(4-(4-methylthiazol-5-yl)phenyl)ethyl)pyrrolidine-2-carboxamide]",surprisingly effective in inducing ER degradation at concentrations as low as 1 nM
5,"CCN(CCCCCCCC(=O)N[C@H](C(=O)N1C[C@H](O)C[C@H]1C(=O)N[C@@H](C)c1ccc(-c2scnc2C)cc1)C(C)(C)C)CCOc1ccc(C(=O)c2c(-c3ccc(O)cc3)sc3cc(O)ccc23)cc1 [compound 15, (2S,4R)-1-((S)-2-(8-(Ethyl(2-(4-(6-hydroxy-2-(4-hydroxyphenyl)benzo[b]thiophene-3-carbonyl)phenoxy)ethyl)amino)octanamido)-3,3-dimethylbutanoyl)-4-hydroxy-N—((S)-1-(4-(4-methylthiazol-5-yl)phenyl)ethyl)pyrrolidine-2-carboxamide]",surprisingly effective in inducing ER degradation at concentrations as low as 1 nM
